{"source": "patent US20260151518A1", "about": "“LEUKOCYTE-SPECIFIC CELL PENETRATING MOLECULES” (Amytrx Therapeutics, Inc., priority 2021, published 2026)", "key": {"[1]": {"experiment": "Pharmacokinetics of [3H]-AMTX-100 after multiple routes of administration", "format": "in vivo, rat", "details": "rats, [3H]-AMTX-100", "experimental": "AMTX-100 was radiolabeled with 3H at lysine residues and injected into Sprague-Dawley rats in a single dose by seven different routes (intravenous, subcutaneous, topical [skin], intratracheal, intraduodenal, esophageal, and oral). The rats were evaluated at various time points, up to 120 hours, by: a) blood samples were taken for pharmacokinetics (PK) by cardiac puncture; b) rats were frozen and sectioned for QWBA and/or micro-auto-radiography and histology; and c) frozen sections were made and freeze dried and exposed to phosphor-storage imaging plates and tissue radioactivity in images was quantified as tissue: blood ratios.\nFor all PK studies, the following definitions were used: WB=whole blood; Plasma=whole blood depleted of red blood cells; WBCD=whole blood depleted of white blood cells in which the whole blood is passed over a Pall Acrodisc filter (about 60% efficient); WBCs=the cells which bind to, and are washed off, the Pall Acrodisc filter."}, "[2]": {"experiment": "Pharmacokinetic study, AMTX-100 in plasma by LC-MS", "format": "in vivo", "details": "mice, sensitive to 2 ng/ml"}, "Human whole blood (WB)": {"system": "Human whole blood (WB)", "experiment": "Flow cytometry of human whole blood incubated with FITC-labelled peptide", "format": "cell-based", "experimental": "It was originally believed that the SSHR on AMTX-100 could enter cells without a receptor, energy or endocytosis. However, in studies performed by the present inventors, an AMTX-100-related peptide with a double-null knockout for Importin α/Importin β complex and Importin β obtained by amino acid substitution and also containing a FITC molecule (FITC-SMTX-100), was incubated with human blood and analyzed by flow cytometry.\nBecause there appeared to be a concentration of radioactivity in organs with immune cells, a series of flow cytometry experiments was initiated with human blood. All cells were first stained with FITC-AMTX-100 and then incubated with immunotyping reagents that separated hematopoietic cells into broad categories of RBCs, granulocytes, monocytes, B- and T-lymphocytes, and NK cells. […] Again, a highly unexpected finding for a peptide which is “purported” to be a promiscuous, cell-penetrating, leader sequence.\nHuman whole blood (WB) was obtained from multiple normal donors and incubated with [FITC]-AMTX-100 at μg/mL quantities in repeat experiments ex vivo.\nPanels of monoclonal antibodies labeled with fluorescent dyes were used to phenotypically identify [FITC]-AMTX-100 penetrated WB cells including classical monocytes, non-classical monocytes, neutrophils, basophils, eosinophils, and T- and B-lymphocytes and NK cells (FIG. 4A-B). […]"}, "[3]": {"system": "animal models of lung, liver, sepsis, and metabolic syndrome induced inflammation", "details": "intraperitoneal injections; cited from earlier work"}}}
{"smiles": "CSCC[C@@H]1NC(=O)[C@H](CC(C)C)NC(=O)[C@H](CCCCN)NC(=O)[C@H](CCC(N)=O)CC(=O)[C@H](CCCNC(=N)N)NC(=O)[C@H](CCCCN)NC(=O)[C@H](CCCNC(=N)N)NC(=O)[C@H](CCC(N)=O)NC(=O)[C@H](C(C)C)NC(=O)[C@@H](NC(=O)[C@@H]2CCCN2C(=O)[C@H](C)NC(=O)[C@H](CC(C)C)NC(=O)[C@H](CC(C)C)NC(=O)[C@H](C)NC(=O)[C@H](CC(C)C)NC(=O)[C@H](CC(C)C)NC(=O)[C@@H](NC(=O)[C@H](C)NC(=O)[C@@H]2CCCN2C(=O)[C@H](CC(C)C)NC(=O)[C@H](CC(C)C)NC(=O)[C@H](C)NC(=O)[C@@H](NC(=O)[C@H](C)NC(=O)[C@H](C)N)C(C)C)C(C)C)CSSC[C@@H](C(=O)O)NC(=O)[C@@H]2CCCN2C1=O", "note": "[AMTX-100]", "values": [{"measurement": "Partition of radiation in blood", "setting": "[1]", "result": "partitioned to the WBCs"}, {"measurement": "Detection of AMTX-100 in plasma depleted of RBCs and WBCs", "setting": "[2]", "result": "not possible to detect"}, {"measurement": "Leukocyte populations targeted", "setting": "Human whole blood (WB)", "result": "leukocytes (classical and non-classical monocytes, neutrophils, basophils and eosinophils)"}, {"measurement": "Efficacy in animal models of inflammation", "setting": "[3]", "result": "have shown efficacy"}]}
